Measurements from US20070021509A1, “Phosphate transport inhibitors” (priority 2001, published 2007).

Experiments:
[1] = tested on: glucose uptake into isolated rabbit intestinal rings; assay: Ex vivo glucose uptake into isolated rabbit intestinal rings; format: cell-based; set-up: concentration or dose not given beside the values; settings: Table 14
Procedure: For the ex vivo assay, ^33P uptake into isolated rabbit intestinal rings was measured using a modification of the method described by Crane and Mandelstam [Robert K. Crane and Paul Mandelstam “The active transport of sugars by various preparations of hamster intestine” Biochim. Biophys. Acta 45: 460-476, 1960; the contents of which are incorporated herein by reference]. Male New Zealand rabbits 2-3 kg in weight were aeuthinized by an i.v. injection of Fatal Pluse®. A midline laparotomy was performed and the duodenum from the pyloric junction to the ligament of Trietz isolated and excised. Segments of bowel were everted, cut into 2-4 mm ring-like pieces and placed into a modified Hepes-Buffered Ringer's solution in which Na^+ had been iso-osmotically replaced with N-methyl-D-glucamine. […] […] Tissues were then solublized by digesting them in a 5 ml volume of Solvable® tissue solubilizer overnight at 50° C. and ^33P levels determined by scintillation counting. Sodium-dependent uptake of ^33P was calculated by determining the difference in uptake between rings incubated in the presence and absence of Na^+ in the Hepes-Buffered Ringer's solution. Results are reported as the percentage inhibition of phosphate and glucose uptake, respectively.

[2] = tested on: glucose transport (rabbit intestinal BBMV); assay: In vitro BBMV assay, glucose transport inhibiting activity; format: biochemical; settings: Table 14
Procedure: In the remaining wells, used for compound containing reactions, are placed MAX Control Buffer. The Hot Stock Plate was stored at room temperature. To each well of an appropriate 96-well filter plate was added approximately 200 μL Stop Buffer to pre-wet the filters for at least 15 minutes prior to assay. The “Compound Plate” was set-up by loading appropriate wells of a 96-well, polypropylene, V-bottom plate with compound solutions. This could be for testing inhibition at a single “screening” concentration, or to measure the potency of compounds by dose-response analysis at the appropriate concentrations. A “BBMV Plate” was set up by loading a 96-well, polypropylene, V-bottom plate with BBMVs at 0.5-2.0 mg/mL (prepared as described above). The BBMV Plate was kept on ice until just prior to the assay. The reaction was initiated by aspiration of the hot uptake buffers (19 uL), from the Hot Stock Plate, and the compound solutions (2 uL), from the Compound Plate, dispensing into an empty 96-well V-bottom plate (Assay Plate), then immediately aspirating the BBMVs (19 μL), from the BBMV Plate and dispensing into the same Assay Plate. The addition of the BBMVs to the assay plate marked the reaction start time. After 15 minutes, the reaction was quenched by addition of 200 μL of STOP buffer from a reservoir. The Stop Buffer was aspirated by vacuum from the wells, through the filters, of the pre-soaked filter plate using a filter plate manifold. The quenched reactions were aspirated and transferred to the filter plate under vacuum. The filters were washed 2 times with 200 μL STOP buffer under vacuum. The filter plate was removed, dried, and the bottom of the filter plate was sealed. To each well of the filter plate was added 50 μL of scintillant (Microscint-20). A top seal was then applied to the filter plate. The plate was incubated for approximately 20 minutes before reading for ^33P CPM on a scintillation counter (i.e., TopCount-Packard Instruments). Percent inhibition was calculated by comparing the CPM values from compound containing wells to the MAX and MIN controls on the same plate using the following formula. 1−((CPM−MIN)/(MAX−MIN)) IC50 values were calculated from non-linear regression analysis within an appropriate software package (i.e., Prism GraphPad).
The phosphate transport inhibitors indicated in Table 14 were tested in both an in vitro and an ex vivo assay to determine their activity. The in vitro assay is identical to the assay described in Example 66, with the exception that the glucose transport inhibiting activity of the compounds was also measured. Results are reported as the IC50 value for the various types of inhibition. A preferred compound will have high phosphate transport inhibiting activity, but little or no glucose transport inhibiting activity.

Row | IC50 [2] | Structure (SMILES) | % Glucose Transport Inhibition [1]
1 | > 100 µM | COc1ccccc1CNC(=O)c1cc(Br)ccc1NS(=O)(=O)c1ccc(OC(F)(F)F)cc1 [Example 70, 5-Bromo-N-(2-methoxy-benzyl)-2-(4-trifluoromethoxy-benzenesulfonylamino)-benzamide] | 8%
2 | 94 µM | Cl.N=C(Nc1ccc(Br)c(C(F)(F)F)c1)Nc1ccc(Br)c(C(F)(F)F)c1 [Example 87, N,N′-Bis-(4-bromo-3-trifluoromethyl-phenyl)-guanidine Hydrochloride] | 3%
3 | 63 µM | Cl.N=C(Nc1cc(C(F)(F)F)cc(C(F)(F)F)c1)Nc1cc(C(F)(F)F)cc(C(F)(F)F)c1 [Example 88, N,N′-Bis-(3,5-bis-trifluoromethyl-phenyl)-guanidine Hydrochloride] | 0%
4 | > 100 µM | O=C(Nc1cccc(C(F)(F)F)c1)Nc1cc(Cl)ccc1Cl [Example 85, 1-(2,5-Dichloro-phenyl)-3-(3-trifluoromethyl-phenyl)-urea] | 0%
5 | 99 µM | Cn1nc(C(C)(C)C)cc1C(=O)Nc1ccc(C(F)(F)F)cc1 [Example 84, 5-tert-Butyl-2-methyl-2H-pyrazole-3-carboxylic acid (4-trifluoromethyl-phenyl)-amide] | 21%
6 | 34 µM | O=C(Nc1cccc(C(F)(F)F)c1)Nc1ccc(F)c([N+](=O)[O-])c1 [Example 86, 1-(4-Fluoro-3-nitro-phenyl)-3-(3-trifluoromethyl-phenyl)-urea] | 4%
7 | 80 µM | O=C(NCc1ccc(OC(F)(F)F)cc1O)c1cc(Br)ccc1NS(=O)(=O)c1ccc(OC(F)(F)F)cc1 [Example 75, 5-Bromo-N-(2-hydroxy-4-trifluoromethoxy-benzyl)-2-(4-trifluoromethoxy-benzenesulfonylamino)-benzamide] | 0%
8 | 82 µM | O=C(Nc1cc(C(F)(F)F)cc(C(F)(F)F)c1)NC1CCCCC1 [Example 83, 1-Cyclohexyl-3-(3,5-Bistrifluoromethyl-phenyl)-urea] | 0%
9 | > 100 µM | O=C(NCc1ccc(F)cc1)c1cc(Br)ccc1NS(=O)(=O)c1ccc(OC(F)(F)F)cc1 [Example 71, 5-Bromo-N-(4-fluoro-benzyl)-2-(4-trifluoromethoxy-benzenesulfonylamino)-benzamide] | 26%
10 | 88 µM | Cl.N=C(Nc1ccc(Cl)c(C(F)(F)F)c1)Nc1ccc(Cl)c(C(F)(F)F)c1 [Example 89, N,N′-Bis-(4-chloro-3-trifluoromethyl-phenyl)-guanidine Hydrochloride] | 0%
11 | 54 µM | O=C(Nc1cccc(C(F)(F)F)c1)Nc1cccc(C(F)(F)F)c1 [Example 82, 1,3Bis(3-Trifluoromethylphenyl)urea] | 26%
12 | 100 µM | COc1ccc(F)cc1CNC(=O)c1cc(Br)ccc1NS(=O)(=O)c1ccc(OC(F)(F)F)cc1 [Example 78, 5-Bromo-N-(5-fluoro-2-methoxy-benzyl)-2-(4-trifluoromethoxy-benzenesulfonylamino)-benzamide] | 4%
13 | > 100 µM | Cl.N=C(Nc1ccc(C(F)(F)F)c(C(F)(F)F)c1)Nc1ccc(C(F)(F)F)c(C(F)(F)F)c1 [Example 90, N,N′-Bis-(3,4-bis-trifluoromethyl-phenyl)-guanidine Hydrochloride] | 0%
